The test system of test [1] is Staphylococcus aureus. Kind of test: MIC, broth-dilution microtiter test, Staphylococcus aureus. The class given is cell-based. The source says:
(§1) The MIC's in Table X were obtained using conventional broth-dilution microtiter tests.

Test [2] has as its system Pasteurella multocida 60A. Briefly: MIC, broth-dilution microtiter test, Pasteurella multocida 60A. Format: cell-based. As to conditions: Pasteurella multocida 60A, avian isolate, broth-dilution microtiter.
Excerpt: as §1

Test [3] has as its system Mycoplasma hyorhinis. Kind of test: MIC, broth-dilution microtiter test, Mycoplasma hyorhinis. As to conditions: Mycoplasma hyorhinis, broth-dilution microtiter. The class given is cell-based.
Excerpt: as §1

For test [4], the system named is Staphylococcus aureus S13E. Briefly: MIC, standard agar-dilution assay, Staphylococcus aureus S13E. The class given is cell-based.
In test [5] the test system is Streptococcus Group 9960. Kind of test: MIC, standard agar-dilution assay, Streptococcus Group 9960. The class given is cell-based. As to conditions: Streptococcus Group 9960, agar dilution.
The test system of test [6] is Staphylococcus epidermidis EPI2. Briefly: MIC, standard agar-dilution assay, Staphylococcus epidermidis EPI2. The class given is cell-based.
Test [7] concerns Streptococcus bovis 80. Kind of test: MIC, broth-dilution microtiter test, Streptococcus bovis 80. As to conditions: Streptococcus bovis 80, broth-dilution microtiter. Format: cell-based.
Excerpt: as §1

The subject of test [8] is Haemophilus influenzae Holt. Kind of test: MIC, standard agar-dilution assay, Haemophilus influenzae Holt. Format: cell-based. As to conditions: Haemophilus influenzae Holt, ampicillin-sensitive strain.
Test [9] concerns Streptococcus pyogenes C203. Briefly: MIC, standard agar-dilution assay, Streptococcus pyogenes C203. The class given is cell-based.
In test [10] the test system is Haemophilus influenzae R252. Briefly: MIC, standard agar-dilution assay, Haemophilus influenzae R252. The class given is cell-based.
For test [11], the system named is Streptococcus pyogenes C203. Kind of test: In vivo protection of mice experimentally infected with S. pyogenes C203. As to conditions: mice, doses given 1 and 4 hours post-infection. The protocol:
The C-20 modified derivatives of this invention have shown in vivo antimicrobial activity against experimentally-induced infections in laboratory animals. When two doses of test compound were administered to mice experimentally infected with S. pyogenes C203, the activity observed was measured as an ED50 value [effective dose in mg/kg to protect 50% of the test animals: see Warren Wick, et al., J. Bacteriol. 81, 233-235 (1961)].

For test [12], the system named is Staphylococcus aureus X1.1. Briefly: MIC, standard agar-dilution assay, Staphylococcus aureus X1.1. The class given is cell-based.
Test [13] concerns Streptococcus Group D X66. Briefly: MIC, standard agar-dilution assay, Streptococcus Group D X66. The class given is cell-based.
Test [14] relates to Pasteurella multocida 17E. Briefly: MIC, broth-dilution microtiter test, Pasteurella multocida 17E. Format: cell-based. As to conditions: Pasteurella multocida 17E, bovine isolate, broth-dilution microtiter.
Excerpt: as §1

The test system of test [15] is Pasteurella hemolytica 22C. Kind of test: MIC, broth-dilution microtiter test, Pasteurella hemolytica 22C. Format: cell-based. As to conditions: Pasteurella hemolytica 22C, broth-dilution microtiter.
Excerpt: as §1

For test [16], the system named is Staphylococcus epidermidis EPI1. Kind of test: MIC, standard agar-dilution assay, Staphylococcus epidermidis EPI1. The class given is cell-based.
Test [17] has as its system Mycoplasma gallisepticum. Briefly: MIC, broth-dilution microtiter test, Mycoplasma gallisepticum. The class given is cell-based.
Excerpt: as §1

In test [18] the test system is Staphylococcus aureus X400. Kind of test: MIC, standard agar-dilution assay, Staphylococcus aureus X400. The class given is cell-based.
The subject of test [19] is Mycoplasma synoviae. Briefly: MIC, broth-dilution microtiter test, Mycoplasma synoviae. Format: cell-based. As to conditions: Mycoplasma synoviae, broth-dilution microtiter.
Excerpt: as §1

In test [20] the test system is Mycoplasma hyopneumoniae. Kind of test: MIC, broth-dilution microtiter test, Mycoplasma hyopneumoniae. As to conditions: Mycoplasma hyopneumoniae, broth-dilution microtiter. The class given is cell-based.
Excerpt: as §1

For test [21], the system named is Streptococcus pneumoniae Park I. Briefly: microbe, parasite or virus in culture. Format: cell-based. As to conditions: Streptococcus pneumoniae.
The subject of test [22] is Staphylococcus aureus V41. Briefly: MIC, standard agar-dilution assay, Staphylococcus aureus V41. As to conditions: Staphylococcus aureus, V41. Format: cell-based.
Where [23] appears, read: Staphylococcus epidermidis, EPI2.
Where [24] appears, read: Streptococcus equinus, read-out: MIC.
The mark [25] stands for this setting: Mycoplasmopsis synoviae, read-out: MIC.
The mark [26] stands for this setting: Mesomycoplasma hyopneumoniae, read-out: MIC.

Consider three compounds from patent US4443436A, “C-20-Modified macrolide derivatives of the macrolide antibiotics tylosin, desmycosin, macrocin, and lactenocin” (Eli Lilly and Company, priority 1982, dated 1984).

Converted amounts (≈) assume the structure as drawn. Like-named read-outs stand apart in the source and are kept apart here.

As for “20-DH-20-O-(Phenylsulfinyl)desmycosin [Compound 25]”, the MIC was 0.39 µg/mL in test [1] (broth-dilution microtiter); 6.25 µg/mL in test [2]; “-- (Not active at 50 mcg/ml, the highest level tested)” in test [3]; 0.25 µg/mL in [4] (Staphylococcus aureus S13E, agar dilution); 4 µg/mL in test [5]; 0.12 µg/mL in test [6] (Staphylococcus epidermidis EPI2, agar dilution). Moreover, the MIC in test [7] was 3.12 µg/mL; in test [8] (agar dilution), 8 µg/mL; in test [9] (Streptococcus pyogenes C203, agar dilution), 0.25 µg/mL; in test [10] (Haemophilus influenzae R252, ampicillin-resistant strain, agar dilution), 4 µg/mL; in [12] (Staphylococcus aureus X1.1, agar dilution), 0.25 µg/mL; in [13] (Streptococcus Group D X66, agar dilution), 4 µg/mL. The MIC in test [14] was 12.5 µg/mL; in [15] it was 12.5 µg/mL; in test [16] (Staphylococcus epidermidis EPI1, agar dilution), 0.25 µg/mL; in test [17] (Mycoplasma gallisepticum, broth-dilution microtiter), below 0.05 µg/mL; in test [18] (Staphylococcus aureus X400, methicillin-resistant strain, agar dilution), 0.25 µg/mL; in test [19] it was 0.19 µg/mL. This compound also showed an MIC in test [20] of 12.5 µg/mL. In addition, in test [11] (oral), the “ED50, Oral” value is on record as 45 mg/kg × 2. Besides, in [11] (subcutaneous), the “ED50, Subcutaneous” value worked out at 5.0 mg/kg × 2.
Consider `CCC1OC(=O)CC(O)C(C)C(OC2OC(C)C(OC3CC(C)(O)C(O)C(C)O3)C(N(C)C)C2O)C(CCSc2ccccc2)CC(C)C(=O)C=CC(C)=CC1COC1OC(C)C(O)C(OC)C1OC` (stereo not drawn) [Compound 6, 20-DH-DO-20-(Phenylthio)tylosin], for which the MIC is 3.12 µg/mL (≈ 3.09 µM) in test [1]; above 50 µg/mL in test [2] (read-out: MIC); 64 µg/mL (≈ 63.3 µM) in test [21]; above 50 µg/mL in [3] (read-out: MIC); 1 µg/mL (≈ 0.99 µM) in [4] (Staphylococcus aureus, S13E); above 128 µg/mL in test [5] (GROUP9960, read-out: MIC). In addition, the MIC was 1 µg/mL (≈ 0.99 µM) in test [6] (setting [23]); 1 µg/mL (≈ 0.99 µM) in test [22]; above 50 µg/mL in test [7] (setting [24]); above 128 µg/mL in test [8] (read-out: MIC); 4 µg/mL (≈ 3.96 µM) in test [9] (Streptococcus pyogenes, C203); above 128 µg/mL in test [10] (Haemophilus influenzae R252, ampicillin-resistant strain, read-out: MIC). For the same compound, the MIC in [12] (Staphylococcus aureus, X1.1) is 1 µg/mL (≈ 0.99 µM); in [13], above 128 µg/mL; in test [14] (read-out: MIC), above 50 µg/mL; in test [15] (read-out: MIC), above 50 µg/mL; in test [16] (Staphylococcus epidermidis EPI1, agar dilution, read-out: MIC) it was 2 µg/mL (≈ 1.98 µM); in test [17] (Mycoplasmoides gallisepticum, Mycoplasma gallisepticum, broth-dilution microtiter, read-out: MIC), 0.78 µg/mL (≈ 0.772 µM). Also, the MIC in [18] (Staphylococcus aureus X400, methicillin-resistant strain, agar dilution, read-out: MIC) is 2 µg/mL (≈ 1.98 µM); in [19] (setting [25]) it was 12.5 µg/mL (≈ 12.4 µM); in test [20] (setting [26]), above 25 µg/mL.
As for `CCC1OC(=O)CC(O)C(C)C(OC2OC(C)C(OC3CC(C)(O)C(O)C(C)O3)C(N(C)C)C2O)C(CCF)CC(C)C(=O)C=CC(C)=CC1COC1OC(C)C(O)C(OC)C1OC` (stereo not drawn) [Compound 8, 20-DH-DO-20-Fluoro-tylosin], the MIC in test [1] is 1.56 µg/mL (≈ 1.7 µM); in [2] (read-out: MIC), above 50 µg/mL; in test [21] it was 64 µg/mL (≈ 69.6 µM); in test [3] (read-out: MIC), above 50 µg/mL; in [4] (Staphylococcus aureus, S13E) it was 1 µg/mL (≈ 1.09 µM); in test [5] (GROUP9960, read-out: MIC) it was above 128 µg/mL. For the same compound, the MIC in [6] (setting [23]) was 1 µg/mL (≈ 1.09 µM); in test [22], 1 µg/mL (≈ 1.09 µM); in test [7] (setting [24]), above 50 µg/mL; in test [8] (read-out: MIC), above 128 µg/mL; in test [9] (Streptococcus pyogenes C203, agar dilution, read-out: MIC), 4 µg/mL (≈ 4.35 µM); in test [10] (Haemophilus influenzae, R252), 128 µg/mL (≈ 139 µM). In addition, the MIC in [12] (Staphylococcus aureus, X1.1) is 1 µg/mL (≈ 1.09 µM); in [13] (Streptococcus Group D X66, agar dilution, read-out: MIC) it was above 128 µg/mL; in test [14] (read-out: MIC), above 50 µg/mL; in [15] (read-out: MIC), above 50 µg/mL; in test [16] (Staphylococcus epidermidis, EPI1), 1 µg/mL (≈ 1.09 µM); in test [17] (Mycoplasmoides gallisepticum), 1.56 µg/mL (≈ 1.7 µM). Besides, the MIC in test [18] (Staphylococcus aureus, X400) is 2 µg/mL (≈ 2.17 µM); in test [19] (setting [25]), 12.5 µg/mL (≈ 13.6 µM); in [20] (setting [26]), above 25 µg/mL.
